Literature values, collected in US20080286202A1, “Method of Diagnosing Prodromal Forms of Diseases Associated With Amyloid Deposition” (priority 2004, published 2008).

Conditions: in vivo

COc1ccccc1N1CCN(CCN(c2ccccn2)[11C](=O)C2CCCCC2)CC1 [[^11C]WAY-100635]
f1 (free level in plasma): 0.06
